ChEMBL document CHEMBL1122789, “Synthesis and biological activity of structural analogues of the anticancer benzophenanthridine alkaloid nitidine chloride” (1984)

Legend:
B16 [1] = experiment: Evaluated for anticancer activity in survival tumor system B16 melanocarcinoma at dose 12.5 mg/kg; type: functional, Mus musculus
B16 [2] = experiment: Evaluated for anticancer activity in survival tumor system B16 melanocarcinoma at dose 25 mg/kg; type: functional, Mus musculus
B16 [3] = experiment: Evaluated for anticancer activity in survival tumor system B16 melanocarcinoma at dose 50 mg/kg; type: functional, Mus musculus
B16 [4] = experiment: Evaluated for anticancer activity in survival tumor system B16 melanocarcinoma at dose 6.25 mg/kg; type: functional, Mus musculus
B16 [5] = experiment: Evaluated for anticancer activity in survival tumor system B16 melanocarcinoma at a dose of 100 mg/kg, value was reported as weight difference; type: functional, Mus musculus
B16 [6] = experiment: Evaluated for anticancer activity in survival tumor system B16 melanocarcinoma at a dose of 200 mg/kg, value was reported as weight difference; type: functional, Mus musculus
B16 [7] = experiment: Evaluated for anticancer activity in survival tumor system B16 melanocarcinoma at a dose of 100 mg/kg; Number of Tested survived/number of control survived (7/10); type: functional, Mus musculus
B16 [8] = experiment: Evaluated for anticancer activity in survival tumor system B16 melanocarcinoma at a dose of 200 mg/kg; Number of Tested survived/number of control survived (4/10); type: functional, Mus musculus
[9] = Evaluated for anticancer activity in tumor inhibition system CD8F1 mammary tumors at a dose of 125 mg/kg; Number of Tested survived/number of control survived (10/10); type: functional, Mus musculus
[10] = Evaluated for anticancer activity in tumor inhibition system CD8F1 mammary tumors at a dose of 500 mg/kg; Number of Tested survived/number of control survived (0/10); type: functional, Mus musculus
[11] = Evaluated for anticancer activity in tumor inhibition system CD8F1 mammary tumors at a dose of mg/kg;Number of Tested survived/number of control survived (10/10); type: functional, Mus musculus
[12] = Evaluated for anticancer activity in tumor inhibition system CD8F1 mammary tumor at dose 62 mg/kg; type: functional, Mus musculus
KB = experiment: Evaluated in vitro for cytotoxicity against KB cell culture system; type: functional; conditions: Homo sapiens, read-out: ED50 (the source's name)
L1210 [13] = experiment: Evaluated for anticancer activity in survival tumor system L1210 lymphoid leukemia at a dose of 6.25 mg/kg; Number of Tested survived/number of control survived (6/6); type: functional, Mus musculus
L1210 [14] = experiment: Evaluated for anticancer activity in survival tumor system L1210 lymphoid leukemia at a dose of 100 mg/kg, value was reported as weight difference; type: functional, Mus musculus
L1210 [15] = experiment: Evaluated for anticancer activity in survival tumor system L1210 lymphoid leukemia at a dose of 12.5 mg/kg, value was reported as weight difference; type: functional, Mus musculus
L1210 [16] = experiment: Evaluated for anticancer activity in survival tumor system L1210 lymphoid leukemia at a dose of 25 mg/kg, value was reported as weight difference; type: functional, Mus musculus
L1210 [17] = experiment: Evaluated for anticancer activity in survival tumor system L1210 lymphoid leukemia at a dose of 3.125 mg/kg, value was reported as weight difference; type: functional, Mus musculus
L1210 [18] = experiment: Evaluated for anticancer activity in survival tumor system L1210 lymphoid leukemia at a dose of 50 mg/kg, value was reported as weight difference; type: functional, Mus musculus
L1210 [19] = experiment: Evaluated for anticancer activity in survival tumor system L1210 lymphoid leukemia at a dose of 50 mg/kg; Number of Tested survived/number of control survived (6/6); type: functional, Mus musculus
[20] = test system: Lewis lung carcinoma cell line; experiment: Evaluated for anticancer activity in survival tumor system Lewis lung (LL) carcinoma at dose 25 mg/kg; type: functional, Mus musculus
[21] = test system: Lewis lung carcinoma cell line; experiment: Evaluated for anticancer activity in survival tumor system Lewis lung (LL) carcinoma at a dose of 12.5 mg/kg; Number of Tested survived/number of control survived (10/10); type: functional, Mus musculus
MX1 [22] = experiment: Evaluated for anticancer activity in tumor inhibition system MX-1 breast xenograph at a dose of 75 mg/kg; Number of Tested survived/number of control survived (4/6); type: functional, Homo sapiens
MX1 [23] = experiment: Evaluated for anticancer activity in tumor inhibition system MX-1 breast xenograph at dose 75 mg/kg; type: functional, Homo sapiens
MX1 [24] = experiment: Evaluated for anticancer activity in tumor inhibition system MX-1 breast xenograph at a dose of 150mg/kg, value was reported as weight difference; type: functional, Homo sapiens
MX1 [25] = experiment: Evaluated for anticancer activity in tumor inhibition system MX-1 breast xenograph at a dose of 75 mg/kg, value was reported as weight difference; type: functional, Homo sapiens
[26] = test system: Lewis lung carcinoma cell line; experiment: Evaluated for anticancer activity in survival tumor system Lewis lung (LL) carcinoma at a dose of 100 mg/kg, value was reported as weight difference; type: functional, Mus musculus
[27] = test system: Lewis lung carcinoma cell line; experiment: Evaluated for anticancer activity in survival tumor system Lewis lung (LL) carcinoma at a dose of 12.5 mg/kg, value was reported as weight difference; type: functional, Mus musculus
[28] = test system: Lewis lung carcinoma cell line; experiment: Evaluated for anticancer activity in survival tumor system Lewis lung (LL) carcinoma at a dose of 200 mg/kg, value was reported as weight difference; type: functional, Mus musculus
[29] = test system: Lewis lung carcinoma cell line; experiment: Evaluated for anticancer activity in survival tumor system Lewis lung (LL) carcinoma at a dose of 25 mg/kg, value was reported as weight difference; type: functional, Mus musculus
[30] = test system: Lewis lung carcinoma cell line; experiment: Evaluated for anticancer activity in survival tumor system Lewis lung (LL) carcinoma at a dose of 50 mg/kg, value was reported as weight difference; type: functional, Mus musculus
P388 [31] = experiment: Evaluated for anticancer activity in survival tumor system P388 lymphocytic leukemia at dose 100 mg/kg; type: functional, Mus musculus
P388 [32] = experiment: Evaluated for anticancer activity in survival tumor system P388 lymphocytic leukemia at dose 12.5 mg/kg; type: functional, Mus musculus
P388 [33] = experiment: Evaluated for anticancer activity in survival tumor system P388 lymphocytic leukemia at a dose of 100 mg/kg; Number of Tested survived/number of control survived (5/6); type: functional, Mus musculus
P388 [34] = experiment: Evaluated for anticancer activity in survival tumor system P388 lymphocytic leukemia at a dose of 12.5 mg/kg;Number of Tested survived/number of control survived (5/6); type: functional, Mus musculus
P388 [35] = experiment: Evaluated for anticancer activity in survival tumor system P388 lymphocytic leukemia at a dose of 25 mg/kg;Number of Tested survived/number of control survived (5/6); type: functional, Mus musculus
P388 [36] = experiment: Evaluated for anticancer activity in survival tumor system P388 lymphocytic leukemia at a dose of 100 mg/kg, value was reported as weight difference; type: functional, Mus musculus
P388 [37] = experiment: Evaluated for anticancer activity in survival tumor system P388 lymphocytic leukemia at a dose of 12.5 mg/kg, value was reported as weight difference; type: functional, Mus musculus
[38] = Evaluated for anticancer activity in tumor inhibition system colon 38 tumors at a dose of 100 mg/kg; Number of Tested survived/number of control survived (10/10); type: functional, Mus musculus
[39] = Evaluated for anticancer activity in tumor inhibition system colon 38 tumors at a dose of 200 mg/kg; Number of Tested survived/number of control survived (10/10); type: functional, Mus musculus
[40] = Evaluated for anticancer activity in tumor inhibition system colon 38 tumors at a dose of 800 mg/kg; Number of Tested survived/number of control survived (0/10); type: functional, Mus musculus
[41] = Evaluated for anticancer activity in tumor inhibition system colon 38 tumor at dose 200 mg/kg; type: functional, Mus musculus
[42] = Evaluated for anticancer activity in tumor inhibition system colon 38 at a dose of 100 mg/kg, value was reported as weight difference; type: functional, Mus musculus
[43] = test system: Lewis lung carcinoma cell line; experiment: Evaluated for anticancer activity in survival tumor system Lewis lung (LL) carcinoma at dose 12.5 mg/kg; type: functional, Mus musculus

`COc1cc2c[n+](C)c3c(c2cc1OC)Cc1cc2c(cc1-3)OCO2.[Cl-]` showed a T/C (B16 [1]) of 131%, a T/C (B16 [2]) of 139% and a T/C (B16 [3]) of 147%. The T/C (B16 [4]) was 148%, the Weight change (B16 [5]) was -4.6 and the Weight change (B16 [6]) was -4.2. The Survival (B16 [7]) was 7, the Survival (B16 [8]) was 4 and the Survival [9] was 10. It also gave a Survival [10] of 0, a Survival [11] of 10 and a T/C [12] of 92%. It also gave an EC50 (KB) of 0.038 mg/L, a Survival (L1210 [13]) of 6 and a Weight change (L1210 [14]) of -5.8. It also gave a Weight change (L1210 [15]) of -2.6, a Weight change (L1210 [16]) of -5.4 and a Weight change (L1210 [17]) of -1.9. For the same compound, the Weight change (L1210 [18]) was -5.8, the Survival (L1210 [19]) was 6 and the T/C [20] was 114%. It also gave a Survival [21] of 10, a Survival (MX1 [22]) of 4 and a T/C (MX1 [23]) of 102%. It also gave a Weight change (MX1 [24]) of -6, a Weight change (MX1 [25]) of -4.5 and a Weight change [26] of -3.8. The Weight change [27] was -0.9, the Weight change [28] was -4.9 and the Weight change [29] was -2.4. The Weight change [30] was -2.6, the T/C (P388 [31]) was 168% and the T/C (P388 [32]) was 134%. It also gave a Survival (P388 [33]) of 5, a Survival (P388 [34]) of 5 and a Survival (P388 [35]) of 5. It also gave a Weight change (P388 [36]) of -5.8, a Weight change (P388 [37]) of -1.4 and a Survival [38] of 10. The Survival [39] was 10, the Survival [40] was 0 and the T/C [41] was 97%. The Weight change [42] was -1.9 and the T/C [43] was 97%.
